Measurements published in ChEMBL document CHEMBL1150074, “Cytotoxic aromatic triterpenes from Maytenus ilicifolia and Maytenus chuchuhuasca” (J Nat Prod, 1994).
Values after ≈ are worked out from the molar mass of the structure shown.

Key:
Assay type in all cases: functional, cell-based
L1210 = assay: Cytotoxicity against mouse L1210 cells by MTT assay
KB = assay: Cytotoxicity against human KB cells by MTT assay
P388 = assay: Cytotoxicity against mouse P388 cells by MTT assay

Row | Compound | IC50 (L1210) [µg/mL] | IC50 (KB) [µg/mL] | IC50 (P388) [µg/mL]
1 | COC(=O)[C@]1(C)CC[C@]2(C)CC[C@]3(C)C4=CC(=O)c5c(cc(O)c(O)c5C)[C@]4(C)CC[C@@]3(C)[C@@H]2C1 | 2.8 (≈ 5.83 µM) | 2.8 (≈ 5.83 µM) | 1.5 (≈ 3.12 µM)
2 | COc1c(O)cc2c(c1CO)C(=O)C=C1[C@@]2(C)CC[C@]2(C)[C@@H]3C[C@@H](C)C(=O)[C@@H](O)[C@]3(C)CC[C@]12C | – | – | 4.3 (≈ 8.91 µM)
3 | COc1c(O)cc2c(c1C)C(=O)C=C1[C@@]2(C)CC[C@]2(C)[C@@H]3C[C@@H](C)C(=O)C[C@]3(C)CC[C@]12C | > 100 | 11 (≈ 24.4 µM) | > 100
4 | Cc1c(O)c(O)cc2c1C(=O)C=C1[C@@]2(C)CC[C@@]2(C)[C@@H]3C[C@@H](C)C(=O)C[C@]3(C)CC[C@]12C [6-OXOTINGENOL] | 6 (≈ 13.7 µM) | 30 (≈ 68.7 µM) | 2.6 (≈ 5.96 µM)
5 | COC(=O)[C@]1(C)CC[C@]2(C)CC[C@]3(C)C4=CC=C5C(=CC(=O)C(O)=C5C)[C@]4(C)CC[C@@]3(C)[C@@H]2C1 [PRISTIMERIN] | 0.36 (≈ 0.775 µM) | 0.55 (≈ 1.18 µM) | 0.12 (≈ 0.258 µM)
6 | CC1=C(O)C(=O)C=C2C1=CC=C1[C@@]2(C)CC[C@@]2(C)[C@@H]3C[C@@H](C)C(=O)[C@@H](O)[C@]3(C)CC[C@]12C [TINGENIN B] | – | – | 0.012 (≈ 0.0275 µM)
7 | CC1=C(O)C(=O)C=C2C1=CC=C1[C@@]2(C)CC[C@@]2(C)[C@@H]3C[C@@H](C)C(=O)C[C@]3(C)CC[C@]12C [TINGENONE] | 0.14 (≈ 0.333 µM) | 0.28 (≈ 0.666 µM) | 0.041 (≈ 0.0975 µM)
